Experimental data taken from publication PMC11375813 (ACS Omega, 2024).
Where “and” joins values, the source holds several entries; their conditions need not be identical. Identical values can stand only once. Like-named read-outs stand apart in the source and are kept apart here.

Tests used:
[1] = target: T1, human plasma BChE (Homo sapiens, UniProt P06276); test: biochemical; format: biochemical; conditions: single concentration 100 μM
T1 construct: 25 μL/well of a 1:450 diluted solution of pooled human plasma; from tissue; host or cells: pooled human plasma, diluted 1:450, BChE not purified
Method: (§1) All of the drugs were tested at a final concentration of 100 μM.
(§2) The screening of the in silico hits toward the BChE and AChE enzymatic activity was done by an adapted high-throughput assay version of Ellman′s colorimetric assay.[59],[60] The reagents, butyrylthiocholine iodide (BTC), acetylthiocholine iodide (ATC), and 5,5′-dithiobis(2-nitrobenzoic acid) (DTNB), were purchased from Sigma-Aldrich (St. Louis, MO). The modified assay details are as previously described.[6],[44] The main modification concerned the high-throughput adaptation of the assay for use in 384-well plates. Briefly, 25 μL/well of a 1:450 diluted solution of pooled human plasma and 1:768 diluted (3.5 ng/mL final concentration) purified recombinant human AChE protein (Sigma, Cat no. C1682) was used for measurement of the BChE and AChE activity, respectively. These enzymes’ concentrations were used since they are representative of the activity of these enzymes in the human cerebrospinal fluid (CSF).
(§3) To the control wells, the vehicle solution was added to get the reference enzyme activity (100%). (2) Then, 25 μL of a working solution of BChE or AChE was added to all wells. The plate was then incubated for 10–30 min at room temperature. (3) The reaction was then started by adding 25 μL of a cocktail mix prepared in Na/K phosphate buffer to all wells, containing DTNB (final concentration 0.4 mM) and BTC (final concentration 1 mM) or ATC (final concentration 0.5 mM). The changes in the absorbance were monitored at 412 nm wavelength for 15–20 min at 1 min intervals, using a microplate spectrophotometer reader (Infinite M1000, Tecan). The rate of the enzyme activity was determined from the slope of the linear part of the kinetic reaction curves. In all steps, the working solution concentrations were 3 times of the final concentrations of each component in the final volume of 75 μL in each well. The final screening concentration of the compounds was 100 μM. […]

[2] = target: T2, human AChE (Homo sapiens, UniProt P22303); test: In vitro single-concentration screening, AChE activity (adapted Ellman assay); format: biochemical; conditions: read-out: inhibition of AChE activity
T2 construct: purchased Sigma C1682
Method: as §1, §2, §3

[3] = tested on: human recombinant ChAT; test: In vitro single-concentration screening against choline acetyltransferase; format: biochemical; conditions: single concentration 100 μM
Method: as §1

[4] = target: T1, human plasma BChE; test: biochemical; conditions: for Ki: inhibition constant (Ki) against human BChE
Source text: as §2
(§4) For BChE, the final BTC concentrations in the wells ranged from 5 mM to […], which were prepared as a 2-fold serial dilution. For AChE, the final ATC concentrations in the wells ranged from 0.5 mM to […], prepared as a 2-fold serial dilution series.
(§5) In all enzyme inhibition kinetic assays, the concentrations of AChE and BChE were chosen so that the enzyme activities were representative of the activity of these enzymes in the human CSF, which is about 20 and 10 nmol/min/mL CSF for AChE and BChE, respectively.[49]
(§6) For the enzyme inhibition kinetic analyses, the order of steps was as follows: (1) 25 μL/well of the compound or the vehicle control was added in quadruplicates, with respect to each compound concentration, in a 384-well plate. (2) Then, 25 μL of each substrate concentration was added to the wells in quadruples. (3) The reaction was then started by adding 25 μL of a master mix to all wells, containing the enzyme working solution and DTNB. The final concentration of the enzyme and DTNB as well as the buffer composition was the same as mentioned above for the screening assay. Then, the plate was immediately placed in the microplate spectrophotometer reader (Infinite M1000, Tecan) and the changes in the absorbance were continuously monitored at 2 min intervals for 15–20 min at 412 nm wavelength. The rate of the enzyme activity was extracted as the slope of the initial linear part of the kinetic reaction curves.
The data were then transferred and processed using GraphPad Prism 9 analysis software.[15] The half-maximal inhibitory concentration (IC50) values were calculated by plotting the percentage enzyme activity versus the log concentrations of the compound. The inhibitory constant (Ki) values were determined from the enzyme inhibition kinetic analyses using the nonlinear regression function in the software. A statistical comparison of the ligand’s mode of activity was also done using GraphPad software between the competitive equation versus the mixed-competitive, noncompetitive, and uncompetitive equations.[61] A competitive mode of action means that the inhibitor reversibly binds to the substrate′s binding site. Thus, the inhibition of the enzyme is modifiable by a high concentration of the substrate via displacement. […] When the behavior of a ligand is not fully uniform, and the mixed-competitive fitting equation is statistically the best fitting option, the ligand is called a mixed-competitive one. This is determined through a general equation that includes the other three modes of actions. Through this equation, the software provides an additional parameter, called α, which determines the mechanism of action of the inhibitor. For instance, when α is equal to one, the inhibitor′s affinity for the free enzyme and the enzyme–substrate complex is equal, i.e., the inhibitor behaves mainly noncompetitively. […] When α is very large, the inhibitor behaves mainly as a competitive ligand. A very small α (but not <0) is indicative of an uncompetitive mode of action.[61]

[5] = target: T2, human AChE; test: IC50 and enzyme inhibition kinetic analyses on AChE; format: biochemical
Source text: as §2, §4, §5, §6
The data were then transferred and processed using GraphPad Prism 9 analysis software.[15] The half-maximal inhibitory concentration (IC50) values were calculated by plotting the percentage enzyme activity versus the log concentrations of the compound. The inhibitory constant (Ki) values were determined from the enzyme inhibition kinetic analyses using the nonlinear regression function in the software. A statistical comparison of the ligand’s mode of activity was also done using GraphPad software between the competitive equation versus the mixed-competitive, noncompetitive, and uncompetitive equations.[61] A competitive mode of action means that the inhibitor reversibly binds to the substrate′s binding site. Thus, the inhibition of the enzyme is modifiable by a high concentration of the substrate via displacement. […] In the case of an uncompetitive mode of activity, the inhibitor has an affinity to the enzyme–substrate complex, but not the free enzyme. When the behavior of a ligand is not fully uniform, and the mixed-competitive fitting equation is statistically the best fitting option, the ligand is called a mixed-competitive one. This is determined through a general equation that includes the other three modes of actions. Through this equation, the software provides an additional parameter, called α, which determines the mechanism of action of the inhibitor. For instance, when α is equal to one, the inhibitor′s affinity for the free enzyme and the enzyme–substrate complex is equal, i.e., the inhibitor behaves mainly noncompetitively. […] When α is very large, the inhibitor behaves mainly as a competitive ligand. […]

[6] = Plasma / in vivo drug concentrations in humans (literature pharmacokinetics); conditions: using a molecular weight of 325.39
[7] = tested on: BChE; set-up: method as in PMID 17196712, PMID 16868793, PMID 20205672, PMID 19199870; conditions: at therapeutic concentrations; cited from earlier work
[8] = target: norepinephrine uptake carrier; conditions: read-out: Ki, norepinephrine uptake carrier; radioligand binding; cited from earlier work
[9] = tested on: muscarinic, histaminergic, α1-adrenergic, serotonergic, dopaminergic, and opioid receptors; conditions: radioligand binding; cited from earlier work
[10] = cited from earlier work
[11] = tested on: human BChE; conditions: cited from earlier work
[12] = cited from earlier work; remark: listed apart in the source
[13] = high substrate range, up to 5 mM
[14] = micromolar substrate range (up to 0.5 mM)
[15] = human, multiple doses of 30 mg twice daily

T1 sequence (P06276 29-602): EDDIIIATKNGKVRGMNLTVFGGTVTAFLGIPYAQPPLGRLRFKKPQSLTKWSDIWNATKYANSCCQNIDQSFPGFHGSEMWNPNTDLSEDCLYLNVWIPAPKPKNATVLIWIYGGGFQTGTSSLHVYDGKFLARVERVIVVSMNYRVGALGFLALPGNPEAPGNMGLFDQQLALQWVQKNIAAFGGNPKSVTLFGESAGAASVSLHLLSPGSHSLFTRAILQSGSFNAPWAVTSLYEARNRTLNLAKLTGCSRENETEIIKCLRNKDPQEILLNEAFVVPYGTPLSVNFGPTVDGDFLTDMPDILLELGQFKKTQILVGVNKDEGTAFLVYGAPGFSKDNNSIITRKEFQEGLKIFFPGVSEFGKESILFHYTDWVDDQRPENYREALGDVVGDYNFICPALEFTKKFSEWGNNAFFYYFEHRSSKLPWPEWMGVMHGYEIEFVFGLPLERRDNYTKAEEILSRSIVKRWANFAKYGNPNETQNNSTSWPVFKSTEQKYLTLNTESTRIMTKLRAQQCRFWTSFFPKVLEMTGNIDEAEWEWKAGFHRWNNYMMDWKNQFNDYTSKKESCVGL
T2 sequence (P22303 32-614): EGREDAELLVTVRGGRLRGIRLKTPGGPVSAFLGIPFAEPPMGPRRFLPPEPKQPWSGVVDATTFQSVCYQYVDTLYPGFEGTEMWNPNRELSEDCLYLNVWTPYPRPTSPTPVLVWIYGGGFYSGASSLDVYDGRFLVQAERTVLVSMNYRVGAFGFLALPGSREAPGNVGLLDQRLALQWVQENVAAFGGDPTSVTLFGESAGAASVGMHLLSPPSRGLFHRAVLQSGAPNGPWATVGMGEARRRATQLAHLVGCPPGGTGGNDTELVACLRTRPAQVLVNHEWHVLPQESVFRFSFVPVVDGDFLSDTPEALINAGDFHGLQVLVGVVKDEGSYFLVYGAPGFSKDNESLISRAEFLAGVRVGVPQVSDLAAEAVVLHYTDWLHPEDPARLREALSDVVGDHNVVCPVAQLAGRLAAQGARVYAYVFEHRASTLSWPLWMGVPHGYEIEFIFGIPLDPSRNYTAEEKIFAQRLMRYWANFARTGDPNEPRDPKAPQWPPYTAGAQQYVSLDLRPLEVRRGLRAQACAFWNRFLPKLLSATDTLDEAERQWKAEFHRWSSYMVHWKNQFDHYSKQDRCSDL

## CN(C)CCCC1(c2ccc(F)cc2)OCc2cc(C#N)ccc21 (stereo not drawn) [citalopram]
[1]
  inhibition at 100 µM: ~55%
[2]
  inhibition at 100 µM: ~60%
[3]
  effect on the activity of human ChAT: neither duloxetine nor citalopram/escitalopram affected the activity
[4]; 203/42
  BChE potency ratio Ki Escit / Ki Cit: 4.8
[4]; [13]
  mode of inhibition of BChE: mixed-competitive
  Ki: 42000 nM
[5]
  Ki: 58800 nM
[5]; enzyme inhibition kinetics
  mode of inhibition of AChE: noncompetitive
[6]
  molar concentration (maximum, from ng/mL): at most 0.86 μM

## COc1cc2c(cc1OC)C(=O)C(CC1CCN(Cc3ccccc3)CC1)C2 (stereo not drawn) [donepezil]
[7]
  inhibitory effect on BChE: completely devoid of any inhibitory effect

## CNCC[C@H](Oc1cccc2ccccc12)c1cccs1 [duloxetine]
[1]
  inhibition of plasma BChE activity: fully inhibited
[2]
  inhibition at 100 µM: ~35%
[3]
  effect on the activity of human ChAT: neither duloxetine nor citalopram/escitalopram affected the activity
[4]
  IC50: 9700 nM
[4]; Ki 210 nM vs […] nM
  times as potent as physostigmine in inhibiting BChE: 4 times
[4]; [13]
  mode of inhibition of BChE: competitive
  Ki: ~351 nM and 350 nM
[4]; [14]
  Ki: 210 nM
  mode of inhibition of BChE: competitive
[5]; enzyme inhibition kinetics
  mode of inhibition of AChE: mixed-competitive
[5]; inhibition constant (Ki) against human AChE, nonlinear regression, enzyme inhibition kinetics
  Ki: 65500 nM and ~56500 nM
[8]
  Ki: 2.1 nM
[9]
  affinity for muscarinic, histaminergic, α1-adrenergic, serotonergic, dopaminergic, and opioid receptors: lacks the pharmacologically relevant affinity
[10]; [15]
  maximum steady-state plasma concentration: 142 nM
  minimum steady-state plasma concentration: 84 nM
[10]; normal dosages
  normal in vivo concentration range in human patients: 100 to 400 nM
[10]; read-out: plasma Cmax, human, single dose of 30–90 mg
  Cmax: 70 to 180 nM
[11]; 10 μM
  inhibition of human BChE: over 70%
[11]; read-out: IC50 against human BChE, substrate and its concentration not reported
  IC50: 1200 nM
[12]; 8-week double-blind placebo-controlled trial
  effect on cognition in the elderly: improved cognition
[12]; 12-week study
  cognitive effect in patients with major depressive disorders: significant cognitive improvements across several domains
[12]; pharmacoepidemiologic study, patients with depression
  risk of developing dementia compared to citalopram-treated patients: significantly lower risk of developing dementia

## CN(C)CCC[C@@]1(c2ccc(F)cc2)OCc2cc(C#N)ccc21 [escitalopram]
[1]
  inhibition at 100 µM: ~10%
[2]
  inhibition at 100 µM: ~60%
[3]
  effect on the activity of human ChAT: neither duloxetine nor citalopram/escitalopram affected the activity
[4]; [13]
  mode of inhibition of BChE: mixed-competitive
  Ki: 203000 nM
[5]
  Ki: 32800 nM
[5]; 59/33
  AChE potency ratio Ki Cit / Ki Escit: 1.8
[5]; enzyme inhibition kinetics
  mode of inhibition of AChE: mixed-competitive
[6]
  molar concentration (maximum, from ng/mL): at most 0.86 μM

## CCN(CC)C(C)CN1c2ccccc2Sc2ccccc21 (stereo not drawn) [ethopropazine]
[4]; [13]
  mode of inhibition of BChE: mixed-competitive
  Ki: 150 nM
[4]; low substrate concentrations (up to 0.5 mM)
  Ki: 154 nM
[4]; [14]
  Ki: ~155 nM
  mode of inhibition of BChE: Mixed-competitive inhibitor

## COc1ccc2c3c1O[C@H]1C[C@@H](O)C=C[C@@]31CCN(C)C2 [galantamine]
[7]
  inhibitory effect on BChE: completely devoid of any inhibitory effect

## CNC(=O)Oc1ccc2c(c1)[C@]1(C)CCN(C)[C@@H]1N2C [physostigmine]
[4]; [13]
  mode of inhibition of BChE: Competitive inhibitor
